Data on seven compounds can be found in patent publication US20220151979A1, “COMPOSITION FOR PREVENTION OR TREATMENT OF CARDIOVASCULAR AND METABOLIC DISEASE COMPRISING NORANHYDROICARITIN” (SEOUL NATIONAL UNIVERSITY HOSPITAL, priority 2019, published 2022).

Common to all, as to assay type: cell-based, human
In one experiment the test system is SREBP 1 promoter. In words: SREBP 1 promoter-reporter luciferase assay in HEK293T cells. To be noted: pGL4.14-SREBP-transfected HEK293T cells, 18 hours, compared to control. How it is done: (§1) In order to confirm the SREBP gene expression inhibitory effect of noranhydroicaritin, HEK293T cells were treated with noranhydroicaritin and kaempferol, and it was confirmed whether the expression of SREBP was inhibited through a luciferase assay.
(§2) i) A primer was prepared to contain KpnI and XhoI restriction enzyme sites in the SREBP 1 and 2 promoter gene region, and then PCR (polymerase chain reaction) and electrophoresis on an agarose gel were performed to isolate SREBP promoter region DNA. A pGL4.14-[luc2/Hygro] vector containing a firefly luciferase as a reporter gene was treated with the same restriction enzymes (KpnI and XhoI), and then isolated via agarose gel electrophoresis and gel extraction. The purely isolated SREBP promoter gene region and pGL4.14-[luc2/Hygro] vector were reacted for 1 hour using In-fusion DNA ligase (Takara), and then transformed into E. coli to prepare a promoter-reporter construct in which the SREBP promoter was inserted, and this was named pGL4.14-SREBP.
(§3) ii) In order to measure the transcriptional activity of the SREBP promoter gene, HEK293T cells were transfected with pGL4.14-SREBP, and then the luciferase activity of the cell extract was measured. […] Thereafter, the luciferase activity was measured by the method of Example 6. […]

The test system of another experiment is SREBP 2 promoter. Nature of the experiment: SREBP 2 promoter-reporter luciferase assay in HEK293T cells. To be noted: pGL4.14-SREBP-transfected HEK293T cells, 18 hours, compared to control. As for the experimental part:
as §1, §2, §3

In experiment [1] the test system is PCSK9. Nature of the experiment: Immunoblot of PCSK9 in HepG2 cells, noranhydroicaritin and statin singly or in combination. The following applies: treated singly. As for the experimental part:
The cells aliquoted by the method of Example 7 were treated with noranhydroicaritin or a statin (atorvastatin or rosuvastatin) singly or with noranhydroicaritin and a statin (atorvastatin or rosuvastatin) simultaneously, and the proteins were extracted. On an SDS-polyacrylamide gel, 30 μg of each protein was electrophoresed, and attached to a membrane, and then protein expression levels were confirmed using the respective antibodies: phospho-AMPK, PCSK9, LDLR, and PPARγ.
Background: A western blot detects proteins with antibodies after separation by electrophoresis.

Experiment [2] relates to PCSK9. Nature of the experiment: Immunoblot of PCSK9 in HepG2 cells, noranhydroicaritin and pravastatin, pitavastatin, fluvastatin or simvastatin (Table 1). To be noted: statin 5 μM singly, untreated = 1 ± 0.04. How it is done:
The cells aliquoted by the method of Example 7 were treated with noranhydroicaritin or each statin (pravastatin, pitavastatin, fluvastatin, or simvastatin) singly or with noranhydroicaritin and a statin (pravastatin, pitavastatin, fluvastatin, or simvastatin) simultaneously, and the proteins were extracted. On an SDS-polyacrylamide gel, 30 μg of each protein was electrophoresed, and attached to a membrane, and then protein expression levels were confirmed using the respective antibodies: PCSK9 and LDLR.

As for `O=c1c(O)c(-c2ccc(O)cc2)oc2cc(O)cc(O)c12` [kaempferol, reference compound], the “SREBP 1 luciferase activity” value in the experiment with SREBP 1 promoter was “actually increased”. The “SREBP 2 luciferase activity” value in the experiment with SREBP 2 promoter was “actually increased”.
For `CC(C)c1c(C(=O)Nc2ccccc2)c(-c2ccccc2)c(-c2ccc(F)cc2)n1CC[C@@H](O)C[C@@H](O)CC(=O)O` [atorvastatin], in the experiment on PCSK9 [1], the “quantity of PCSK9 (immunoblot)” value was “increased”.
In turn, `CC(C)n1c(/C=C/C(O)CC(O)CC(=O)O)c(-c2ccc(F)cc2)c2ccccc21` (centres unmarked) [Fluvastatin, fluvastatin] showed a PCSK9 in the experiment with PCSK9 [2] of 1.63 ± 0.02.
`O=C(O)C[C@H](O)C[C@H](O)/C=C/c1c(C2CC2)nc2ccccc2c1-c1ccc(F)cc1` [Pitavastatin, pitavastatin] yielded a PCSK9 with PCSK9 [2] of 1.59 ± 0.02.
`CC[C@H](C)C(=O)O[C@H]1C[C@H](O)C=C2C=C[C@H](C)[C@H](CC[C@@H](O)C[C@@H](O)CC(=O)O)[C@H]21` [Pravastatin, pravastatin] gave a PCSK9 with PCSK9 [2] of 1.9 ± 0.06.
Turning to `CCC(C)(C)C(=O)O[C@H]1C[C@@H](C)C=C2C=C[C@H](C)[C@H](CC[C@@H]3C[C@@H](O)CC(=O)O3)[C@H]21` [Simvastatin, simvastatin], the PCSK9 in the experiment with PCSK9 [2] is reported as 1.85 ± 0.11.
Regarding `CC(C)c1nc(N(C)S(C)(=O)=O)nc(-c2ccc(F)cc2)c1/C=C/[C@@H](O)C[C@@H](O)CC(=O)O` [rosuvastatin], the “quantity of PCSK9 (immunoblot)” value in the experiment on PCSK9 [1] is “increased”.
